{
  "source": "patent US9517224B2",
  "about": "“Methods of treating patients infected with HIV and HTLV” (THE UNITED STATES OF AMERICA, AS REPRESENTED BY THE …, priority 2012, dated 2016)",
  "test_system": "PBMC's from normal volunteers",
  "assay": "mRNA for IL-4, INF-gamma, TNF-alpha and CD69 in PBMCs from normal volunteers",
  "type": "cell-based",
  "data": [
    {"substance": "ionomycine", "values": [
      {"measurement": "CD69 mRNA, relative fold difference versus untreated control", "result": 1.639, "unit": "fold"},
      {"measurement": "IFN-γ mRNA, relative fold difference versus untreated control", "result": 1.608, "unit": "fold"},
      {"measurement": "IL-4 mRNA, relative fold difference versus untreated control", "result": 0.716, "unit": "fold"},
      {"measurement": "TNF-α mRNA, relative fold difference versus untreated control", "result": 0.657, "unit": "fold"}
    ]}
  ]
}
